The text below walks through data of PMC9304282, “Relating Conformational Equilibria to Conformer‐Specific Lipophilicities: New Opportunities in Drug Discovery” (Angewandte Chemie (International Ed. in English), 2021).

Several values for one entry are separate records, joined by “and”; a condition that tells them apart may be missing. Equal values may be shown once. Read-outs that look alike come from different tables or passages of the source.

As usually defined, the logP is the decadic logarithm of the partition coefficient of the neutral form, usually between octanol and water.

Data set [1] is described as follows: amide rotamer ratio (K value) in octanol and water phase by 19F NMR integration. The following applies: experimental. The data set is classed as physicochemical. An excerpt: In the closed equilibrium system shown in Figure 2A, the ratio of the p‐values equates to the ratio of the K‐values ((Eq. 7), Figure 2C), so that the difference in logp values equals the log of the K‐value ratio (Eq. 8). In other words: the lipophilicity difference between two conformers is directly related to the change between their equilibrium concentration ratios in water and octanol. The K‐values can be obtained through integration measurement (Eq. 8).
The ρ and K determinations require assignment of each fluorine signal in each phase to a particular rotamer, as it was observed that the relative position of cis‐and trans‐amide rotamer resonances in the ^19F NMR spectrum in octanol was not always the same as that in water. Conformer signal assignment in the water phase is easily accomplished by a control experiment using (octanol‐saturated) D2O by standard NOESY analysis combined with peak integration (see Supporting Information). As perdeuterated octanol is very expensive, this was experimentally non‐trivial for cases when the huge octanol solvent R‐CH 2OH signal and its ^13C satellites obscure proton resonances that are required for rotamer assignment. Solvent suppression techniques are impractical, and skew the integration ratio. We therefore introduced 1,1‐dideuteriooctanol (C7H15CD2OH), which considerably facilitated rotamer assignment. It is prepared on large scale by a modified Bouveault–Blanc reduction[20] of cheap methyl octanoate with EtOD as deuterium source (see Supporting Information).
(§1) Linclau et al – supporting information 21
(§2) 4.3 Detailed experimental data for the logP determinations (roct and rwat values for each
(§3) 4.3.1 Standard NMR settings
(§4) Standard NMR parameter setting: SW, 300 ppm; centered O1P; NS 64; D1 30 sec (octanol sample), D1 60 sec (water sample). Any change from standard setting was described for each compound. Unless specified otherwise 2,2,2-trifluoroethanol (logP: +0.36) was used as the reference compound. […]
(§5) Reference - 1-Fluoropropan-2-ol
(§6) Compound Experimental ρ /ρ LogP Average Error
(§7) (octanol/water) oct wat LogP
(§8) Ratio of E:Z-rotamers, and K value:
(§9) Octanol phase Water phase
(§10) Conformation ρ /ρ LogP Average Error

Data set [2] is described as follows: logP and conformer-specific logp determination by 19F NMR (octanol/water partitioning). The format is physicochemical. The following applies: for logP: n-octanol/water, octanol/water, 19F NMR.
Description: The principle of the strategy for logp optimization, and of the direct logp measurement, is illustrated for amide rotamers (Figure 2) in slow exchange in solution, where each rotamer signal can be integrated directly. This constitutes a system with four coupled equilibria of conformers between (refers to p) and within (refers to K) the two phases (Figure 2A). Our lipophilicity measurement procedure[18] involves acquiring a ^19F NMR spectrum of each phase after phase separation (Figure 2B), and measuring integration relative to an added internal reference. Three peaks are observed: one corresponding to the reference, and two corresponding to each amide rotamer. A ρ‐value for a given rotamer in a given phase is defined as the integration ratio of the rotamer signal and that of the reference (Eq. 5). Through taking the ratio of the ρ‐values of a rotamer, Equation 6 can be obtained,[18] showing that its logp equals the known logP of the reference plus the log of the ratio of its ρ‐values. The overall logP of the amide is then determined by using the integration sum of its rotamer signals using the same equation.[18]
Linclau et al – supporting information 8
3 The logP determination by 19F NMR
Lipophilicities were determined using a previously published protocol:[1] to a 10 mL pear-shaped flask was added the compound (1.0 - 10 mg) for logP determination, the reference compound (1.0 - 10 mg, with known logP value, e.g., 2,2,2-trifluoroethanol, logP: +0.36), water (2 mL) and n-octanol (2 mL). The resulting biphasic mixture was stirred (at 600 rpm) for 2 h at 25 °C, and then left without stirring for 16 h at 25 °C to allow phase separation. An aliquot of 0.5 mL was taken from each phase using 1 mL syringes with long needles and added to two separate NMR tubes. A deuterated NMR solvent (0.1 mL, e.g., acetone-d6), or a capillary tube containing deuterated NMR solvent, was added to the NMR tubes to enable signal locking.
Because of the volatility of the used compounds, the NMR tubes were sealed using a blowtorch. For NMR samples with directly added deuterated solvent, the tubes were inverted 20 times for mixing. For 19F{1H} NMR experiments, NMR parameters were set as follows: D1 30 sec for the octanol sample, D1 60 sec for the water sample; and O1P centered between two diagnostic fluorine peaks. If needed, an increased number of transients (NS) and/or narrower spectral window (SW) for a good S/N ratio (typically >300) was applied.
After NMR data processing, integration ratios ρoct and ρaq (ρoct is defined as the integration ratio between the compound and the reference compound in the octanol sample; likewise for ρaq) were obtained, and used in the equation (logPX = logPref + log(ρoct/ρaq)) to obtain the logP value of the compound. The logP measurement of each compound was run in triplicate. LogP values of non-fluorinated compounds were taken from the literature.
The standard deviation (σ) was calculated using the formula: […]
Where xi are the individual estimated logP values and x̅ is the mean average.
as §1, §2, §3, §4, §5, §6, §7, §8, §9, §10

Setting [3] is: difference between trans and cis rotamer logp.
Setting [4] is: unrounded mean, read-out: logP, mean as printed in column Error (±σ).
Where [5] appears, read: unrounded mean, read-out: logp cis rotamer, mean as printed in column Error (±σ).
Setting [6] is: unrounded mean, read-out: logp trans rotamer, mean as printed in column Error (±σ).
Setting [7] is: 25 °C, sum of rotamer signals, read-out: logP (macroscopic lipophilicity, average).
The mark [8] stands for this setting: difference between E and Z rotamer logp.
The mark [9] stands for this setting: unrounded mean, read-out: logp E rotamer, mean as printed in column Error (±σ).
The mark [10] stands for this setting: unrounded mean, read-out: logp Z rotamer, mean as printed in column Error (±σ).

In the case of `COC(=O)[C@@H]1C[C@@H](F)CN1C(C)=O` [6a, N-acetyl-4R-FPro-OMe], the “Kt/c oct (ratio of trans/cis rotamers)” value in data set [1] (octanol phase) came out at 5.29. Besides, the Ratio c/t in data set [1] (octanol phase) amounted to 0.19; in data set [1] (water phase) it was 0.15. Also, the “Kt/c wat (ratio of trans/cis rotamers)” value in data set [1] (water phase) came to 6.49. In addition, the Δlogp in data set [2] (setting [3]) is reported as 0.09. Also, the logP in data set [2] (setting [4]) was -0.605; in data set [2] (setting [5]) it was -0.529; in data set [2] (setting [6]), -0.618; in data set [2] (setting [7]), -0.6.

Take `CC(=O)N1C[C@H](F)C[C@H]1C(=O)N(C)C` [6b, N-acetyl-(2S,4R)-4-fluoroproline dimethyl amide]: the “Kt/c oct (ratio of trans/cis rotamers)” value in data set [1] (octanol phase) turned out to be 8.29. The values for the Ratio c/t in data set [1] (octanol phase) and in data set [1] (water phase) were 0.12 and 0.23, respectively. In addition, the “Kt/c wat (ratio of trans/cis rotamers)” value in data set [1] (water phase) is listed as 4.44. Also, in data set [2] (setting [3]), the Δlogp is -0.27. Moreover, the logP is -1.39 in data set [2] (cis amide rotamer, read-out: logp (cis)-rotamer (conformer-specific, average)); -1.16 in data set [2] (setting [4]); -1.39 in data set [2] (setting [5]); -1.12 in data set [2] (setting [6]); -1.16 in data set [2] (setting [7]).

Regarding `COC(=O)[C@@H]1CC(F)(F)CN1C(C)=O` [7a, N-Acetyl-4,4-F2Pro-OMe], the “Kt/c oct (ratio of trans/cis rotamers)” value in data set [1] (octanol phase) turned out to be 2.09. Besides, in data set [1] (water phase), the “Kt/c wat (ratio of trans/cis rotamers)” value came out at 3.48. The logP in data set [2] (setting [4]) was -0.196; in data set [2] (setting [5]), -0.035; in data set [2] (setting [6]) it was -0.256; in data set [2] (setting [7]), -0.2.

On to `CC(=O)N1CC(F)(F)C[C@H]1C(=O)N(C)C` [7b, N-Acetyl-4,4-F2Pro-NMe2], for which the “Kt/c oct (ratio of trans/cis rotamers)” value in data set [1] (octanol phase) turned out to be 4.76. Also, the values for the Ratio c/t in data set [1] (octanol phase) and in data set [1] (water phase) were 0.21 and 0.27, respectively. Moreover, in data set [1] (water phase), the “Kt/c wat (ratio of trans/cis rotamers)” value was determined as 3.68. In addition, the Δlogp in data set [2] (setting [3]) was -0.11. Moreover, the logP in data set [2] (setting [4]) was -0.888; in data set [2] (setting [5]) it was -0.978; in data set [2] (setting [6]) it was -0.866; in data set [2] (setting [7]), -0.89.

In the case of `CC(=O)N1CCC(F)C1` (stereo not shown) [compound 2, N-Acetyl-3-fluoropyrrolidine], the “KE/Z oct (ratio of E:Z rotamers)” value in data set [1] (octanol phase) worked out at 0.75. The “Ratio Z/E (K value in parentheses)” value was 1.33 in data set [1] (octanol phase) and 1.16 in data set [1] (water phase). Further, in data set [1] (water phase), the “KE/Z wat (ratio of E:Z rotamers)” value is reported as 0.86. Besides, in data set [2] (setting [8]), the Δlogp amounted to 0.06. The logP was -0.568 in data set [2] (setting [4]), -0.602 in data set [2] (setting [9]), -0.538 in data set [2] (setting [10]) and -0.57 in data set [2] (setting [7]).

On to `CC(=O)N1CCC(F)(F)C1` [compound 3, N-Acetyl-3,3-difluoropyrrolidine], for which the “KE/Z oct (ratio of E:Z rotamers)” value in data set [1] (octanol phase) is listed as 0.72. In addition, the “Ratio Z/E (K value in parentheses)” value was 1.4 and 1.39 in data set [1] (octanol phase); 1.2 and 1.19 in data set [1] (water phase). The “KE/Z wat (ratio of E:Z rotamers)” value in data set [1] (water phase) came to 0.84. The same compound gave a Δlogp in data set [2] (setting [8]) of 0.06. The logP in data set [2] (setting [4]) was -0.117; in data set [2] (setting [9]), -0.153; in data set [2] (setting [10]), -0.089; in data set [2] (setting [7]), -0.12.

Turning to `CC(=O)N1CCCC(F)C1` (stereo not shown) [compound 4, N-Acetyl-3-fluoropiperidine], the “KE/Z oct (ratio of E:Z rotamers)” value in data set [1] (octanol phase) worked out at 1.43. Moreover, the “Ratio Z/E (K value in parentheses)” value in data set [1] (octanol phase) was determined as 0.70; in data set [1] (water phase), 1.05. Further, the “KE/Z wat (ratio of E:Z rotamers)” value in data set [1] (water phase) worked out at 0.95. The compound further yielded a Δlogp in data set [2] (setting [8]) of -0.19. Besides, the logP in data set [2] (setting [4]) was -0.1; in data set [2] (setting [9]) it was -0.015; in data set [2] (setting [10]) it was -0.198; in data set [2] (setting [7]), -0.1.

With `CC(=O)N1CCCC(F)(F)C1` [compound 5, N-Acetyl-3,3-difluoropiperidine], the “KE/Z oct (ratio of E:Z rotamers)” value in data set [1] (octanol phase) amounted to 1.17. The “Ratio Z/E (K value in parentheses)” value worked out at 0.85 in data set [1] (octanol phase) and 1.37 in data set [1] (water phase). Also, the “KE/Z wat (ratio of E:Z rotamers)” value in data set [1] (water phase) amounted to 0.73. The same compound returned a Δlogp in data set [2] (setting [8]) of -0.21. The logP in data set [2] (setting [4]) is 0.272; in data set [2] (setting [9]), 0.378; in data set [2] (setting [10]), 0.174; in data set [2] (setting [7]), 0.27.
